Laboratory results published in US20240391872A1, “PHENOXY-ACETYL-THIOUREIDO-BENZENESULFONAMIDE DERIVATIVES, AND THEIR USES” (priority 2021, published 2024).
pEC50, pIC50: −log10 of the molar value. “Also recorded” adds a separate entry of the source. Where two headings read alike, the source gives them in different places.

Experiments:
Vero E6 cells = conditions: cited from earlier work
SARS-CoV-2 [1] = experiment: microbe, parasite or virus in culture; format: cell-based
[2] = Innocuity assessment in mice (weight); format: in vivo; conditions: concentrations up to 10 mg/kg
Description: Two mice were used per condition.
(§1) The low potency of RG10 in HAE could be attributed to its weak stability and therefore, the inventor designed a novel RG10 derivative, which the inventor called RG10b. This derivative harbors a modification shielding a molecular weakness present in RG10.

SARS-CoV-2 [3] = experiment: microbe, parasite or virus in culture; format: cell-based; conditions: for pIC50: SARS-CoV-2 MOI 0.01, 48 h, vRNA RT-qPCR; for antiviral activity (relative SARS-CoV-2 vRNA levels): MOI 0.01, 48 h, indicated concentrations
[4] = Pharmacokinetics experiments in mice; format: in vivo; conditions: blood
Description: as §1

SARS-CoV-2 [5] = experiment: SARS-CoV-2 infection of human airway epithelia (HAE); format: cell-based; conditions: 10 μM; for viral RNA by RT-qPCR: wild type CoV2 MOI 0.01, 4 days
Procedure: FIG. 33 HAE cells were either untreated (Mock) or treated with 10 μM of RG10 and then infected with SARS-CoV-2 mNeonGreen virus at MOI 0.1. After 4 days, cells were fixed and stained for CoV2 spike protein and actin filaments (phalloidin staining). Z-stack images were acquired using a confocal microscope and processed using ImageJ to produce an average intensity image for each individual channel. Scale bar=20 μm.
FIG. 34 HAE cells were either untreated (Mock) or treated with 10 μM of RG10 and then infected with SARS-CoV-2 mNeonGreen virus at MOI 0.1. After 4 days, cells were fixed and stained for CoV2 spike protein and actin filaments (phalloidin staining). Z-stack images were acquired using a confocal microscope and processed using ImageJ to produce an average intensity image for each individual channel. Scale bar=20 μm.
FIG. 35 3D representation of the images from [FIG. 33] and [FIG. 34] using the Imaris software. Scale bar=20 μm.
FIG. 37 Same samples from [FIG. 36] were processed to measure by RT-qPCR, relative vRNA levels normalized by Rpl27 RNA expression. The bars are means+/−SD from two pooled independent experiments. Student's t-test **p value<0.01; ***p value<0.005; ****p value<0.001.
FIG. 42 HAE cells were treated with 10 μM of RG10, RG10b, and Remdesivir and then infected for 4 days with CoV2 at MOI 0.01. Cells were then processed for RNA extraction and RT-qPCR experiments. […] Student's t-test *p value<0.05 **p value<0.01; ***p value<0.005.
Huh7.5.1 (Zhong J. et al. (2005) Proceedings of the National Academy of Sciences of the United States of America 102:9294-9), Vero E6 (ECACC #85020206), Caco2, and HEK 293T cells were cultured in DMEM GlutaMAX (Thermo Fisher Scientific) supplemented with 10% fetal calf serum and penicillin-streptomycin (500 μg/ml; GIBCO). HAE cells (Epithelix) were cultured in Mucilair media at the basal side and maintained at air-liquid interface. Apical washes were performed each 2-3 days by temporarily adding Mucilair media for 30 minutes. All cell types were maintained at 37° C. in a 5% CO2 atmosphere.
Cells were lysed and RNA immediately extracted using the Luna Cell Ready Lysis Module according to the manufacturer's protocol (New England Biolabs). RT-qPCR on extracted RNA was performed using the Luna One-Step RT-qPCR Kit (New England Biolabs). The samples were analyzed using a Lightcycler 480 instrument (Roche) using the following thermal cycle: Reverse transcription step at 55° C. for 15 min, initial denaturation at 95° C. for 2 min. Then, 40 cycles were programmed consisting of 15 s of denaturation at 95° C. followed by 30 s of annealing/extension at 55°. Fluorescent data collection was performed at the end of each cycle. SARS-CoV-2 viral RNA was detected using the N1 probe that targets specifically the N protein. […]

[6] = infected non-human primates; cited from earlier work
SARS-CoV-2 [7] = experiment: Time-of-addition experiment, CoV2 in Vero E6 cells; format: cell-based
sXBP1 = sXBP1 RNA levels in HAE cells infected with CoV2; format: cell-based, human; conditions: 10 μM, CoV2 MOI 0.01, 4 days
Procedure: FIG. 36 HAE cells were treated with 10 μM of RG10 and Remdesivir and then infected with wild type CoV2 at MOI 0.01 for 4 days. Graphs show relative sXBP1 RNA levels normalized with GAPDH RNA expression.
Cells were lysed and RNA immediately extracted using the Luna Cell Ready Lysis Module according to the manufacturer's protocol (New England Biolabs). RT-qPCR on extracted RNA was performed using the Luna One-Step RT-qPCR Kit (New England Biolabs). The samples were analyzed using a Lightcycler 480 instrument (Roche) using the following thermal cycle: Reverse transcription step at 55° C. for 15 min, initial denaturation at 95° C. for 2 min. Then, 40 cycles were programmed consisting of 15 s of denaturation at 95° C. followed by 30 s of annealing/extension at 55°. Fluorescent data collection was performed at the end of each cycle. SARS-CoV-2 viral RNA was detected using the N1 probe that targets specifically the N protein. For normalization, primers targeting Rpl27 or GAPDH were utilized.

ZIKV = format: cell-based, Zika virus; conditions: MOI 0.3, 24 h
endoplasmic reticulum = experiment: Confocal imaging of ER morphology and compound localization in Huh7.5.1 cells; format: cell-based, human; conditions: 50 μM, 6 h, Calnexin staining
Procedure: FIG. 15 Huh7.5.1 cells were treated with 25 µM of RG10-Rhod or free Rhodamine for 3 h. Cells were fixed and stained using an anti-Calnexin antibody as a marker for ER membranes and DAPI for nuclear staining. One channel corresponds to rhodamine fluorescence. The micrographs show the individual channels and merge that have been acquired using confocal microscopy and processed using ImageJ. Scale bar=10 μm.
FIG. 17 Huh.7.5.1 cells were treated with 50 μM of RG10 for 6 h and then were processed for confocal imaging.
Cells were then fixed and stained using an anti-Calnexin antibody as a marker for ER membranes and DAPI for nuclear staining. The micrographs show the individual channels and merge that have been acquired using confocal microscopy and processed using ImageJ. Scale bar=10 μm.
Cells grown on #1.5 glass coverslips were fixed with 4% PFA for 15 min. Cells were then permeabilized with 0.1% Triton X100 and saturated with 0.2% BSA. Then, primary antibody incubation was performed for 1 h. After a series of PBS washes, secondary antibodies were added for 30 min. DAPI staining was performed for 10 min to obtain nuclear staining. Coverslips were mounted on glass slides using Mowiol mounting media. Images were acquired using a Leica SP5 confocal microscope.

[8] = Cytotoxicity, LDH release assay; format: cell-based
sXBP-1 = experiment: ER stress mediator RNA levels by RT-qPCR in Huh7.5.1 cells; format: cell-based, human
SARS-CoV-2 [9] = format: cell-based; conditions: Caco2 cells, 10 μM, MOI 0.01, 48 h
HCoV-229E-Renilla = format: cell-based, human coronavirus 229E
N-mRuby3 CoV2 = experiment: Live cell imaging and tracking of N-mRuby3 CoV2 particles in Huh7.5.1 cells; format: cell-based, SARS-CoV-2
[10] = Huh 7.5.1 cells, 10 μM, MOI 0.01, 48 h
[11] = Huh 7.5.1 cells, 25 μM, MOI 0.01, 48 h
[12] = Severe acute respiratory syndrome coronavirus 2, Vero C1008, Vero E6 cells
[13] = Huh7.5.1 cells, 10 μM, MOI 0.5, 48 h

NC(=O)c1nc(F)c[nH]c1=O [favipiravir]
potency in vitro (Vero E6 cells; in vitro): very low potency in vitro

COc1ccc(N2CCCC(NC(=S)Nc3ccc(S(=O)(=O)NC4CCCCC4)cc3)C2)cc1 (stereo not drawn) [RG27-8]
antiviral activity (relative SARS-CoV-2 vRNA levels) (SARS-CoV-2 [1]; [10]): cannot be observed
antiviral activity (relative SARS-CoV-2 vRNA levels) (SARS-CoV-2 [1]; [11]): harbor also an antiviral activity

COc1ccc(N2CCC(NC(=S)Nc3ccc(S(=O)(=O)NC4CCCCC4)cc3)C2)cc1 (stereo not drawn) [RG10b]
innocuity / toxicity in mice [2]: well supported by mice at concentrations up to 10 mg/kg; also recorded: no toxicity observed
pEC50 (SARS-CoV-2 [3]; Severe acute respiratory syndrome coronavirus 2, Vero C1008, Vero E6 cells, CoV2 48 h (FIGS. 38 and 39)): > 6.00
pIC50 (SARS-CoV-2 [3]; [12]): ~6.00
antiviral activity (relative SARS-CoV-2 vRNA levels) (SARS-CoV-2 [3]; Vero E6 cells): more potent than RG10
half-life relative to RG10 [4]: more than 3 fold
half-life ([4]; mouse, read-out: pharmacokinetic half-life / stability in vivo): > 2 h
viral RNA by RT-qPCR (SARS-CoV-2 [5]): more potent than RG10, showing antiviral activity similar to Remdesivir

CCN(CCO)CCCC(C)Nc1ccnc2cc(Cl)ccc12 (stereo not drawn) [Hydroxychloroquine]
viral loads [6]: does not decrease the viral loads
pEC50 (Vero E6 cells; Vero E6 cells): ~5.70

COc1ccc(N2CCC(NC(=S)Nc3ccc(S(=N)(=O)NC4CCCCC4)cc3)C2)cc1 (stereo not drawn) [RG27-1]
antiviral activity (relative SARS-CoV-2 vRNA levels) (SARS-CoV-2 [1]; [10]): cannot be observed
antiviral activity (relative SARS-CoV-2 vRNA levels) (SARS-CoV-2 [1]; [11]): harbor also an antiviral activity

COc1ccc(OCCNC(=S)Nc2ccc(S(=O)(=O)NC3CCCCC3)cc2)cc1 [RG10]
antiviral activity, vRNA levels, RG10 Pre (SARS-CoV-2 [7]; Vero E6, MOI 0.1, 10 μM during the first 4 h of infection and washed-out): no antiviral activity when incubated only during virus entry
vRNA expression levels, RG10 Post (SARS-CoV-2 [7]; Vero E6, MOI 0.1, 10 μM starting at 4 h post-infection): significantly decreased vRNA expression levels
viral N protein and dsRNA levels by flow cytometry, entry steps (SARS-CoV-2 [7]; Vero E6, MOI 0.1, 10 μM, 24 h): some inhibition was also observed at the entry steps
viral N protein and dsRNA levels by flow cytometry, post entry (SARS-CoV-2 [7]; Vero E6, MOI 0.1, 10 μM, 24 h): strong antiviral activity post entry
sXBP-1 RNA levels (sXBP1): upregulated
antiviral activity against ZIKV (relative vRNA levels) (ZIKV; Vero E6, 10 μM): no detectable effect on ZIKV; also recorded: unable to inhibit ZIKV replication
pIC50 (SARS-CoV-2 [3]; [12]): 5.81
antiviral activity (relative SARS-CoV-2 vRNA levels) (SARS-CoV-2 [3]; Vero E6 cells): potent antiviral molecule with similar activity levels as Remdesivir; also recorded: high CoV2 antiviral activity
ER morphology (endoplasmic reticulum): perturbed ER morphology
cytotoxicity [8]: did not show cytotoxicity at working concentrations
cytotoxicity ([8]; LDH release, working concentrations): very low cytotoxicity compared to Latrunculin, jasplakinolide and cytocalasin D
sXBP-1 RNA levels (sXBP-1; 10 μM): no difference was observed between RG10 and RG7
sXBP-1 RNA levels (sXBP-1; 50 μM, 6 h): enriched
CoV2 antiviral activity (relative vRNA levels) (SARS-CoV-2 [1]; [10]): high CoV2 antiviral activity
neosynthesized Spike protein, Western blot (SARS-CoV-2 [1]; [13]): could barely be detected
viral RNA synthesis, dsRNA immunolabeling (SARS-CoV-2 [1]; [13]): prevents viral RNA synthesis
viral protein synthesis, microscopy and flow cytometry (SARS-CoV-2 [1]; [13]): prevent viral protein synthesis
potency at high multiplicity of infection (SARS-CoV-2 [1]; Huh7.5.1 cells, 10 μM, indicated MOI, 48 h): retained potency at high multiplicity of infection (MOI) similar to Rem
pEC50 (SARS-CoV-2 [1]; Severe acute respiratory syndrome coronavirus 2, Huh-7.5.1, potency in Huh7.5.1 cells (FIG. 3)): ~5.82
CoV2 antiviral activity (relative vRNA levels) (SARS-CoV-2 [9]): high CoV2 antiviral activity
HAE viability (SARS-CoV-2 [5]; 4 days): viability was similar
viral infection, fluorescent mNeonGreen virus (SARS-CoV-2 [5]; MOI 0.1, 4 days): decreases viral infection
viral RNA by RT-qPCR (SARS-CoV-2 [5]): decreased by RG10, although the extent of the decrease was much lower than Remdesivir treatment
antiviral activity against HCoV-229E (HCoV-229E-Renilla): significant antiviral activity, although potency was lower
mean particle speed of virus (N-mRuby3 CoV2): slowed down virus movement to the ER

Tunicamycin [reference compound]
antiviral activity against ZIKV (relative vRNA levels) (ZIKV; Vero E6, 1 μM): active against both viruses
antiviral activity against CoV2 (relative vRNA levels) (SARS-CoV-2 [3]): active against both viruses

O[C@@H](CS)[C@@H](O)CS [DTT, reference compound]
sXBP-1 RNA levels (sXBP-1; 1 mM, 6 h, positive control of ER stress): enriched
